Experimental data published in US6664224B2, “Quaternary ammonium salt and process for the preparation thereof” (priority 2000, dated 2003).

What was measured:
[1] = test system: Escherichia coli K12 W 3110; assay: MIC by agar plate dilution method; type: cell-based; conditions: E. coli, 37° C. 24 hours
Procedure: MIC value was determined by an agar plate dilution method according to the Law of Japanese Society of Chemotherapy. In some detail, a bacteria solution in stationary state which had been adjusted with a nutrient broth such that the concentration of bacterial suspension reached 10^6 cell/ml was added to agar culture media containing chemical solutions having concentrations which vary in two stages where it was then allowed to stand at a temperature of 37° C. for 24 hours for culture. The bacteria solution was then examined to see if the proliferation of bacteria occurred. Thus, MIC was determined.
The following three kinds of bacteria were used as sample bacteria:
Escherichia coliK12 W 3110 (E. coli);

P. aeruginosa = assay: Anti-septic power test (USP XX); type: cell-based, Pseudomonas aeruginosa; conditions: test sample 0.002 wt %
Procedure: Solutions prepared according to the formulation set forth in Tables 10 and 11 below were subjected to anti-septic power test according to the method defined in Pharmacopoeia of the United States XX, 873 (1980). The solutions thus tested were then observed for anti-septic power after 1 hour, 4 hours, 24 hours, 7 days, 14 days, 21 days and 28 days. As test microorganisms, E. coli, P. auru. and S. Aureus were used as bacteria and A. niger and C. albicans were used as fungi. 4BAMP-6C and benzalkonium chloride were used as test samples.

rat = assay: Oral toxicity test on rat (LD50); type: in vivo
Procedure: The quaternary ammonium salt of the invention is a compound having an extremely high safety, i.e., LD50 (rat) of not smaller than 2,000 mg/kg in oral toxicity test on rat.
The sample 4BAMP-6C thus obtained was then determined for oral toxicity (LD50: rat). The results were greater than 2,000 mg/kg.

[2] = test system: Escherichia coli K12 OUT 8401; assay: Minimum bactericidal concentration (MBC) against bacteria; type: cell-based; conditions: contact 30° C. 30 minutes, culture 37° C. 24 hours
Procedure: (§1) A bacteria solution in the initial stage of logarithmic productive phase which had been adjusted with a nutrient broth according to an ordinary sterilized water dilution method such that the concentration of bacterial suspension reached 10^6 cell/ml was brought into contact with chemical solutions having concentrations which vary stepwise at a temperature of 30° C. for 30 minutes, and then transplanted to a nutrient broth where it was then allowed to stand at a temperature of 37° C. for 24 hours for culture. The nutrient broth was then examined to see if the proliferation of bacteria occurred. Thus, MBC was determined.
(§2) Five kinds of gram-negative bacteria and four kinds of gram-positive bacteria were used as sample bacteria.
(§3) BAMP-6 (Example 12), BAMD-6,8 (Example 13), BAMT-6 (Example 17) and benzalkonium chloride (Comparative Example 1) were determined for MBC value against 5 kinds of gram-negative bacteria and 4 kinds of gram-positive bacteria in the same manner as in Test Example 1.

Bacillus cereus IFO 3001 = assay: as above; type: cell-based; conditions: contact 30° C. 30 minutes, culture 37° C. 24 hours
Procedure: as §1, §2, §3

Proteus rettgeri NIT 96 = assay: as above; type: cell-based; conditions: contact 30° C. 30 minutes, culture 37° C. 24 hours
Procedure: as §1, §2, §3

[3] = Interaction with eye drop components (visual transparency); type: physicochemical; conditions: for Results (transparency of neutralized solution): in 1% sodium chloride solution
Procedure: Eye drop components and the preservative of the invention were dissolved in a 1% sodium chloride solution. The solution was then neutralized with a proper amount of diluted hydrochloric acid or sodium hydroxide. The neutralized solution thus obtained was then visually observed for transparency. Chondroitin sodium sulfate (hereinafter abbreviated as “SKA”), sodium hyaluronate (hereinafter abbreviated as “SHA”), sodium cromoglicate (hereinafter abbreviated as “SCA”), sodium dimethylisopropylazulenesulfonate (hereinafter abbreviated as “SDPA”), and flavin-adenine dinucleotide (hereinafter abbreviated as “FA”) were used as the eye drop components. 4BAMP-6C (Example 1) and benzalkonium chloride (Comparative Example 1) were used as test samples of preservative.

cornea = conditions: reported; eye drop; cited from earlier work
[4] = Formulation 1 (chondroitin sodium sulfate 1 wt %)

Substance	MIC [1]	time at which the desired anti-septic effect was confirmed (P. aeruginosa; [4])	time at which the desired anti-septic effect was confirmed (P. aeruginosa; Formulation 2 (taurin 1 wt %))	oral toxicity LD50 (rat)	MBC [2]	MBC (Bacillus cereus IFO 3001)	MBC (Proteus rettgeri NIT 96)	Results (transparency of neutralized solution) ([3]; FA 0.1%, 4BAMP-6C 0.1%)	Results (transparency of neutralized solution) ([3]; SCA 3%, 4BAMP-6C 0.1%)	Results (transparency of neutralized solution) ([3]; SDPA 0.05%, 4BAMP-6C 0.1%)	Results (transparency of neutralized solution) ([3]; SHA 0.2%, 4BAMP-6C 0.1%)	Results (transparency of neutralized solution) ([3]; SKA 3%, 4BAMP-6C 0.1%)	amount incorporated at which the cornea is damaged (cornea)	Results (transparency of neutralized solution) ([3]; FA 0.1%, benzalkonium chloride 0.01%)	Results (transparency of neutralized solution) ([3]; SCA 3%, benzalkonium chloride 0.01%)	Results (transparency of neutralized solution) ([3]; SDPA 0.05%, benzalkonium chloride 0.01%)	Results (transparency of neutralized solution) ([3]; SHA 0.2%, benzalkonium chloride 0.01%)	Results (transparency of neutralized solution) ([3]; SKA 3%, benzalkonium chloride 0.01%)	transparency of solutions with eye drop components ([3]; summary of Table 9)
1,4-bis(N,N-dihexyl-N-methylammoniomethyl)phenylene dichloride [Example 4BAMP-6C]	8 ppm	1 h	1 h	greater than 2,000 mg/kg	8 ppm	4 ppm	<2 ppm	Transparent	Transparent	Transparent	Transparent	Transparent	–	–	–	–	–	–	–
benzalkonium chloride [reference compound]	32 ppm	24 hrs. hr.	24 hrs. hr.	–	8 ppm	4 ppm	16 ppm	–	–	–	–	–	≥ 0.01%	Clouded	Clouded	Clouded	Clouded	Clouded	slightly opaque
